Reference: ChEMBL document CHEMBL3507680, “University of Dundee, Gates Library screen for HepG2 cell viability”

Test: Human HepG2 cell viability assay in 384 well format
Assay type: toxicity, cell-based
Set-up: dose 125 nL, time 70.5 hour; concentration not given beside the values
Details: HepG2 cells, read-out: Inhibition

| SMILES | cytotoxicity at 70.5 h |
| --- | --- |
| CN1CCN(Cc2cnc3n2CCN(C(=O)c2ccoc2)C3)CC1 | -7.31% |
| CN1CCN(Cc2cnc3n2CCN(C(=O)c2ccnnc2)C3)CC1 | -14.6% |
| CN1CCN(Cc2cnc3n2CCN(C(=O)c2cnccn2)C3)CC1 | -4.26% |
| CCS(=O)(=O)N1CC[C@H]2O[C@@H](c3nnc(C)o3)CC[C@H]21 | -8.41% |
| CCOCC1CN(S(=O)(=O)C2CC2)Cc2cnn(C)c21 (centres undefined) | 20% |
| Cc1ccc(C(=O)N2CC[C@@]3(O)CCN(C(=O)N(C)C)C[C@H]3C2)cc1Cl | -8.07% |
| CCCc1cc(C(=O)N2Cc3cnc(C(C)(C)C)nc3C2)ccn1 | 0.0745% |
| CNc1ncccc1CN1CCN(c2cc(NC3CC3)nc(N)n2)CC1 | 0.197% |
| COc1ccccc1Oc1ncccc1CNC(=O)CN1CCCC1=O | -4.31% |
| OCc1ccc(-c2nccn2CCc2nc3c(s2)CCCC3)o1 | 9.89% |
| CCCc1nnc(N2CCC(N3CCCCCC3)CC2)o1 | -15.8% |
| CC(C)Oc1cc(N2CCCC(O)C2)nc(N)n1 (centres undefined) | 7.95% |
| O=C1NC2(CCN(CCc3ccccc3)CC2)CC1c1ccccc1 (centres undefined) | -8.33% |
| CCCc1nnc(N(C)CC2CCN(CC(C)C)CC2)o1 | -7.76% |
| COc1ccc(C(=O)NC2CC2)c(OC2CCN(C3CCC3)CC2)c1 | -3.47% |
| Cc1nccc(N[C@H]2CN(C(=O)C3(C#N)CCOCC3)C[C@@H]2C(C)C)n1 | 12% |
| COc1ccc(CCC2CCCN(CC(=O)O)C2)cc1 (centres undefined) | -6.84% |
| CC1CN(CC(=O)NCCc2ccncc2)Cc2ccccc2O1 (centres undefined) | -7.7% |
| CC(=O)N1C[C@@H]2CC[C@H](C1)N(S(=O)(=O)c1cc(F)ccc1C)C2 | -10.6% |
| CC[C@@]1(O)CCN(C(=O)CCNC(=O)c2ccc(F)cc2)C[C@H]1O | -5.99% |
| Cc1ccc2[nH]c(CN(C)Cc3ccccc3C(=O)O)nc2c1 | -7.29% |
| Nc1nc(NCCc2[nH]nc3c2CCCC3)cc(N2CCOCC2)n1 | -6.18% |

| SMILES | cytotoxicity at 70.5 h |
| --- | --- |
| CC(C)[C@@H]1CN(c2ccc(C(F)(F)F)cn2)C[C@H]1NS(C)(=O)=O | 21.5% |
| CCN1CCC(N2C[C@H]3OC(=O)N(CCc4cccc(Cl)c4)[C@H]3C2)CC1 | -0.155% |
| c1cc(-c2cncnc2)cc(-c2ccn(CC3CCNC3)n2)c1 (centres undefined) | -15.7% |
| CC/C(C)=C/CCN1CCN(C)C2(CCNC(=O)CC2)C1 (centres undefined) | -6.34% |
| c1ccc(-c2cc(CN3C[C@H]4CC[C@H]3C4)on2)cc1 | -4.67% |
| CSc1ccc(-c2nc(CN3CCCC(CNC(C)=O)C3)c(C)o2)cc1 (centres undefined) | -3.75% |
| Cc1ccn2c(F)c(C(=O)N3CCC4(CCCN(C)C4=O)C3)nc2c1 (centres undefined) | -8.44% |
| CCOc1ccc(CCCC(=O)N2CCC(C(=O)NC)C2)cc1C (centres undefined) | -8.84% |
| Cc1cc(C)cc(CN2CCN(C(=O)COCC3CCCO3)CC2=O)c1 (centres undefined) | -5.03% |
| Cn1nnnc1SCCNC(=O)C1CCN(C(=O)C2CC2)CC1 | 24.5% |
| CC(NC(=O)c1cn(CCC2CCCCC2)nn1)c1cnn(C)c1 (centres undefined) | 20.4% |
| COc1cc(Cc2nc3c([nH]2)CC(C)(C)CNC3=O)cc(OC)c1 | 8.47% |
| CC(C(=O)N1CCn2cncc2C1)N1C[C@@H](C)O[C@@H](C)C1 (some centres undefined) | 0.983% |
| Cc1cc(C(=O)NCc2cccnc2N2CCCC(O)C2)[nH]n1 (centres undefined) | -16.1% |
| O=C(CSc1ccccc1)N1C[C@H]2CC[C@@H]1CN(Cc1ccncc1)C2 | -4.9% |
| CCSc1ncc(CN(Cc2cnn(C)c2)CC(C)C)cn1 | -4.66% |
| Cc1cc(C(F)(F)F)cc(N2C[C@@H](CN(C)CCO)[C@@H](CO)C2)n1 | 2.18% |
| COC(=O)c1cc(C)nc(N2CCN(Cc3ccn(C(C)C)c3)CC2)n1 | -18.7% |
| Cc1ocnc1C(=O)N1CCN(CCOc2ccccc2)CC1 | -10.4% |
| Cc1ccccc1[C@@H]1CN(Cc2nc3ncccn3n2)C[C@H]1C(=O)O | 3.89% |
| CN(C)S(=O)(=O)N1C[C@@H]2CC[C@H](C1)N(Cc1ccc(F)c(F)c1)C2 | 4.72% |
| CCN(Cc1nccn1C)C(=O)c1ccc(NCC(C)C)nc1 | -6.64% |

| SMILES | cytotoxicity at 70.5 h |
| --- | --- |
| CC(C)c1nnc2sc(CC3CN(C(C)C)CCO3)nn12 (centres undefined) | -7.69% |
| COc1ccc(F)cc1CN1CCCn2nc(CNS(C)(=O)=O)cc2C1 | -5.04% |
| Cc1noc(C)c1CNC(=O)c1cn(CCC2CCCCN2)nn1 (centres undefined) | -0.767% |
| COC(=O)CNC(=O)C1(N(C)Cc2ccccc2)Cc2ccccc2C1 | -8.63% |
| COc1cccc(CN2CCC(O)(c3ccc(C)cn3)CC2)c1OC | 4.46% |
| COc1cc(F)ccc1-c1cnc(N)cn1 | -13.6% |
| CCn1c(CN(C)C)nnc1C1CCN(Cc2ccncc2)CC1 | -6.3% |
| O=C(NCCc1cccs1)C1(N2CCCCC2)Cc2ccccc2C1 | -7.46% |
| Nc1nc2c(c(NCC(c3cccnc3)N3CCOCC3)n1)CCNC2 (centres undefined) | -10.5% |
| CCn1nc(C)c(CN2CCC(c3ccc(C(=O)O)cc3)C2)c1C (centres undefined) | -2.74% |
| Cc1c(CNCC(C)Oc2cccnc2)c2ccccc2n1CC(N)=O (centres undefined) | 2.14% |
| Cc1nc(Cn2c(=O)cnc3ccccc32)n(C)n1 | -24.2% |
| Cn1c(Cn2ccnc2)nnc1C1CCN(C(=O)c2ccncc2)CC1 | -5.75% |
| Cc1nc(CCN)cc(N2CCC(O)(c3ccccc3)C2)n1 (centres undefined) | -4.16% |
| CC(C)=CCCN1CCN(C)C2(CCC(=O)N(C)CC2)C1 (centres undefined) | -6.95% |
| Cc1ccc(C)c(CN2CCCn3nc(CNS(C)(=O)=O)cc3C2)c1 | 15.4% |
| CCN1CC(C(=O)NCc2cccc(SC)c2)CC1=O (centres undefined) | 18% |
| CCCn1cc(NC(=O)c2cccc(CN3CC=CC3)c2)nn1 | 45.4% |
| CN1C(=O)C2(CCCN(C(=O)c3cccnc3O)C2)c2ccccc21 (centres undefined) | 21% |
| CC(C)c1noc(Cn2ncc3ccccc3c2=O)n1 | -7.17% |
| Cc1ccc(CN2CCN(C(=O)CCc3nc(Cl)n[nH]3)CC2=O)cc1 | -14.2% |
| CC(=O)N[C@@H]1C[C@H](Cc2ccccc2)O[C@H](c2ccc(C(=O)O)cc2)C1 | -6.19% |

| SMILES | cytotoxicity at 70.5 h |
| --- | --- |
| O=C(N[C@@H]1CCNC[C@H]1O)c1ccc(F)c(F)c1 | -5.14% |
| CCc1ccc2nc(C)cc(C(=O)NCc3csc(N(C)C)n3)c2c1 | 16.3% |
| C=C(C)COc1ccccc1CNCCc1cc(O)nc(C)n1 | -2.32% |
| Cc1nc(CC(=O)N2CCCC(N(C)Cc3ccccc3)C2)cs1 (centres undefined) | 1.48% |
| COc1ccc(Oc2ncccc2C(N)=O)cc1CN1CCCC1 | -7.33% |
| CC[C@@]1(O)CCN(c2ncc(Cl)cc2C(F)(F)F)C[C@H]1O | 20.8% |
| O=C1O[C@@H]2CN(C3CCOCC3)C[C@@H]2N1CCc1cccc(Cl)c1 | -1.7% |
| CCCN1CCC(CC(=O)NCc2cc(C)nn2C)CC1 | -7.34% |
| CC1(C)CNC(=O)c2nc(C3CCCN(S(C)(=O)=O)C3)[nH]c2C1 (centres undefined) | -6.33% |
| COCCC1(C(=O)O)CCCN(c2cc(C)c3ccccc3n2)C1 (centres undefined) | -8.76% |
| Cc1ccccc1[C@@H]1CN(Cc2c(C)noc2C)C[C@H]1C(=O)O | 21.7% |
| COCCN(C)C[C@H]1C[C@H](CO)CN(C(=O)c2ccn(C)c(=O)c2)C1 | -9.68% |
| CCCc1cc(C(=O)N(C)Cc2cccc3cnccc23)n(C)n1 | -2.24% |
| Cc1nc(CN)cc(N2CCC(O)(c3ccc(Cl)cc3)CC2)n1 | -1.91% |
| Cc1noc(C)c1CN1C[C@@H](NC(=O)N(C)C)[C@H](C(C)C)C1 | -6.75% |
| COC(=O)[C@@H]1CCCN1C(=O)c1cn(CCCc2ccccc2)nn1 | -19.4% |
| COc1cccc(CN2CCN(C(=O)Nc3nc(C)ns3)CC2=O)c1 | -0.713% |
| Cc1nc(N(C)Cc2cccc(O)c2)nc2cc(S(C)(=O)=O)ccc12 | -7.8% |
| CC(C)c1cc(CN(C)C(=O)C(C)N2CCc3ccccc3C2)no1 (centres undefined) | 34.4% |
| CC(C)C1CN(c2nccc(N)n2)CCC(=O)N1Cc1ccc(F)cc1 (centres undefined) | -8.72% |
| Oc1cc(CN2CCCCC2c2cccnc2)nc2c(F)cccc12 (centres undefined) | -2.95% |
| CC(C)(C)c1ccc(OCc2nc3c(c(=O)[nH]2)CCNC3)cc1 | -7.79% |

| SMILES | cytotoxicity at 70.5 h |
| --- | --- |
| CCC(CO)NC(=O)c1cc(COc2ccc(OC)cc2Cl)[nH]n1 (centres undefined) | -10.5% |
| COc1ccc(OC)c2c(C)cc(N(C)CCO)nc12 | 16.9% |
| CCC(C)N(Cc1cnc(OC)nc1)Cc1ccsc1 (centres undefined) | -3.9% |
| Clc1cc(N2CCC(N3CCCC3)CC2)nc2[nH]ccc12 | -2.57% |
| CC(C)C1=NOC(c2nc(-c3cccc(Cl)c3)no2)C1 (centres undefined) | 8.08% |
| COc1cccc(C(=O)N2CCc3c(nc(N)[nH]c3=O)C2)c1C | 1.02% |
| Cn1cc(Cl)c(C(=O)N2CCC(N3CCc4ccccc4C3)CC2)n1 | -6.46% |
| CCN1CCCC(C)(C(=O)NCc2nncn2CCc2ccccc2)C1 (centres undefined) | -8.53% |
| NC1(C(=O)N2CCC(c3cc(-c4ccccc4Cl)n[nH]3)CC2)CCC1 | 46.9% |
| COc1ccc2cc(C3CN(C(=O)CCNC(C)=O)CCO3)ccc2c1 (centres undefined) | 2.84% |
| COc1cccc2c1OCC(C(=O)N(Cc1ccncc1)CC(C)C)C2 (centres undefined) | 15.1% |
| c1ccc(CN2CCCC(CNc3ncnc4c3CCNCC4)C2)cc1 (centres undefined) | -6.09% |
| CCCc1nc(N(C)CCc2noc(C(C)C)n2)c2cnn(C)c2n1 | 5.48% |
| CC(C)C(=O)N1CCC(CNc2nc(C(C)C)nc3c2cnn3C)CC1 | -9.27% |
| COc1ccnc(CN(C)C(=O)CSc2nnc(N)s2)c1 | -5.2% |
| Cc1nc(N)sc1C(=O)N1CCCC(COc2ccc(F)cc2)C1 (centres undefined) | -0.394% |
| CCNC(=O)[C@@H]1C[C@@H](NC(=O)c2ccc(C#N)cc2)CN1CCCSC | 17.5% |
| Cc1noc([C@@H]2C[C@H]3CN(C(=O)C4CCN(C)CC4)C[C@H]3O2)n1 | -11.3% |
| O=S(=O)(c1cccs1)N1CC[C@@H](O)[C@@H]1Cc1ccncc1 | 18% |
| OCCOCc1ncn2c1CN(Cc1cccs1)CCC2 | 0.851% |
| Cn1cc(CN2CCCC3(CCN(C(=O)c4cnccn4)C3)C2)cn1 (centres undefined) | 11.1% |
